Test results as given in article PMC3673949, “Small Molecule R1498 as a Well-Tolerated and Orally Active Kinase Inhibitor for Hepatocellular Carcinoma and Gastric Cancer Treatment via Targeting Angiogenesis and Mitosis Pathways” (PLoS ONE, 2013).
“And” between values parts separate entries of the source, which are not always exact repeats. Identical values can stand only once. Like-named read-outs stand apart in the source and are kept apart here.

Columns and labels:
[1] = Single dose pharmacokinetic (SDPK) study; format: in vivo; conditions: Nude Mouse
Method: Before the pharmacokinetic study, animals were randomly assigned to the sampling groups (3 animals per time point). Ten additional mice were used to collected plasma blank for calibration curves. The mice were fasted overnight before oral administration. […] The plasma samples and the dose formulation were stored at −20°C until bioanalysis. The data acquisition and control system were created using Analyst 1.4 software from ABI Inc. The concentrations in plasma below the limit of quantitation (LOQ = 1 ng/mL) were designated as zero. […] For rat, dog and monkey SDPK, the blood samples were collected from jugular vein puncture.

[2] = system: human primary gastric tumor derived xenografts; experiment: Three human GC primary tumor derived xenograft models (overall); format: in vivo, BALB/C nu/nu nude mice; conditions: three patient derived gastric xenografts, 25 mg/kg
Method: In human primary tumor models, fresh human gastric tumor tissues were directly implanted into nonobese diabetic and severe combined immune-deficient (NOD-SCID) mice within 5 hours post-surgery with 5 mm^3 fragments to establish primary tumor xenograft models. […] Treatment began when tumor volume reached 100∼150 mm^3. The tumor measurement and operation protocol was the same as cell line derived tumor model.

HUVEC (FBS stimulated) = experiment: HUVEC proliferation in 10% FBS; format: cell-based; conditions: Homo sapiens, 72 h
Method: Each cell line was seeded in a 96-well tissue culture plate (Corning, NY) at a predetermined density in 180 µL complete medium, attached overnight and treated by compound for another 72 h. Then the medium was discarded and replaced with 10% CCK-8 (Dojindo, Kumamoto, Japan) in complete medium, then incubated the plates for another 2 h. The OD450 was measured with SpectraMAX 190 spectrophotometer (MDS, Sunnyvale, CA). A background absorbance of ODblank was subtracted from all wells.
In VEGF-induced HUVEC proliferation assay, the HUVECs suspended in 170 µL EGM-2 with 0.5% FBS were seeded and incubated overnight. After the cells attached, 10 µL 1 µg/ml recombinant human VEGF 165 (R&D systems, Minneapolis, MN) was added to each well together with 20 µl compound solutions prepared in EGM-2 with 0.5% FBS. The CCK-8 assay as above was used for determination of cell viability.

[3] = Plasma and tumor exposure at steady state in xenograft-bearing mice; format: in vivo, nude mice; parameters: Tumor AUC @ SS: unit not given here; conditions: for AUC: nude, mouse, po, read-out: Plasma AUC @ SS
Text: Supplementary file pone.0065264.s004.doc: Table S3 ED60/90 estimation from the R1498 exposure at steady state in tumors. The exposure in plasma and tumor at steady state were plot against tumor growth inhibiton rate to estimate the ED60/E90 doses. (DOC) Click here for additional data file.

Aurora kinase A = Aurora kinase A (Homo sapiens, UniProt O14965); experiment: Z'-Lyte kinase activity assay; format: biochemical; conditions: mean of three independent experiments
Aurora kinase A, sequence (O14965 whole entry): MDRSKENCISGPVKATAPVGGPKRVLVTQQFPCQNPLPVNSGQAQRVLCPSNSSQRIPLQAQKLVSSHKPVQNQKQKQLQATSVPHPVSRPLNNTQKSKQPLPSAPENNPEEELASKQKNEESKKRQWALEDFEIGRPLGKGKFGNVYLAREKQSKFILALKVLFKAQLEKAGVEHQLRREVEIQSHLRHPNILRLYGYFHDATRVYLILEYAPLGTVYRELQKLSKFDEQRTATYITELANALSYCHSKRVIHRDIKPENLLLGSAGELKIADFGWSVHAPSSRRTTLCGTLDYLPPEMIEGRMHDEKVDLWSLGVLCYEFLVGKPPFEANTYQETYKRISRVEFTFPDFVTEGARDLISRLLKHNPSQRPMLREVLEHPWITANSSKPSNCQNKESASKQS
Method: (§1) The affinity of R1498 against 402 kinases was determined by KINOMEScan® (Ambit Biosciences, San Diego, CA) and data were presented as dissociation constant (Kd) values. The inhibition on kinase activity of Aurora kinases and VEGFR2 was further characterized by Z’-Lyte kinase activity assays under corresponding ATP concentrations.

VEGFR2 = VEGFR2 (Homo sapiens, UniProt P35968); experiment: Z'-Lyte kinase activity assay; format: biochemical; conditions: mean of three independent experiments
VEGFR2, sequence (P35968 20-1356): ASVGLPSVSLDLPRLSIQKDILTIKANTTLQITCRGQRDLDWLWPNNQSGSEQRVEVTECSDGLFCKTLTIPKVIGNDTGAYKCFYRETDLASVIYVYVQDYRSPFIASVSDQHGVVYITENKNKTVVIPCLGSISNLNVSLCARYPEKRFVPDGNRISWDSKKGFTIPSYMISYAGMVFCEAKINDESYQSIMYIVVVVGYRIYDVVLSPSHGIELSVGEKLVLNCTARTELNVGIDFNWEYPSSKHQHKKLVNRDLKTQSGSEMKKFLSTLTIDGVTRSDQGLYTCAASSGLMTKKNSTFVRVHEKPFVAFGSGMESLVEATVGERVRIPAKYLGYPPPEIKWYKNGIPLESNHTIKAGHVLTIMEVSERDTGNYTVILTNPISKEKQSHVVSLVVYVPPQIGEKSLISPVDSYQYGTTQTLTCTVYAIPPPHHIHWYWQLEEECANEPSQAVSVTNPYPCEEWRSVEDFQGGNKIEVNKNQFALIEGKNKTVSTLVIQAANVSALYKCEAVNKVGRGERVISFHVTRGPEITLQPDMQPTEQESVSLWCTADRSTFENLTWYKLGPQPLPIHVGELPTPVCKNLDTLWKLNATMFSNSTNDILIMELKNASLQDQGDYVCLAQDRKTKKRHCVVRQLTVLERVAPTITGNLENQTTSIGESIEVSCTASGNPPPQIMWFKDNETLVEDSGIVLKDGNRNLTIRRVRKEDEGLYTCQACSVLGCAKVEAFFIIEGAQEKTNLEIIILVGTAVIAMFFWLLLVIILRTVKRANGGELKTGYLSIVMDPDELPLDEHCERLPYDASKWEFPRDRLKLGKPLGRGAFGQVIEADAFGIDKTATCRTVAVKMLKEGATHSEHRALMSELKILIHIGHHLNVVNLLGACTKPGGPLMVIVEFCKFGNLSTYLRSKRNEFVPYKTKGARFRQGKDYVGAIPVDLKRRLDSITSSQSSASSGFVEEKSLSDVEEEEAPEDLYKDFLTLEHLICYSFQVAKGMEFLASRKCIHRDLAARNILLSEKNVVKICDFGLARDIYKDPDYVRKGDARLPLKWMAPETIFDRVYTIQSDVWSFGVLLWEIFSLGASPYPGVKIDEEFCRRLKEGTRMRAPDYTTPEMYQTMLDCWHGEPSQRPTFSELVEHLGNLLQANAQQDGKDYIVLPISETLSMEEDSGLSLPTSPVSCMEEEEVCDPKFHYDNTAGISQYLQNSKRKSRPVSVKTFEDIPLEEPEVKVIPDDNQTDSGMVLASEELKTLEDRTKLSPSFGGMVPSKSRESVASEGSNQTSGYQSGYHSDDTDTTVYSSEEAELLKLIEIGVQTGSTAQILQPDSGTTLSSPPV
Method: as §1

Aurora kinase B = Aurora kinase B (Homo sapiens, UniProt Q96GD4); experiment: Z'-Lyte kinase activity assay; format: biochemical; conditions: mean of three independent experiments
Aurora kinase B, sequence (Q96GD4 whole entry): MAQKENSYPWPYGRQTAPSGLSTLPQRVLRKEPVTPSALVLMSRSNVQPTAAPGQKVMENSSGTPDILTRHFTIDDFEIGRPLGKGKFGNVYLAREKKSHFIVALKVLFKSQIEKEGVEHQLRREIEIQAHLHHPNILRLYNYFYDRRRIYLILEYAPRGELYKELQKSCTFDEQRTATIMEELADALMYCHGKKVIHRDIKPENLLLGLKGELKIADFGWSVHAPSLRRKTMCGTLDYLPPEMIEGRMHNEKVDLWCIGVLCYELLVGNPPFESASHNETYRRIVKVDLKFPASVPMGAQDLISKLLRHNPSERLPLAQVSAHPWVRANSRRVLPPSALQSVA
Method: as §1

[4] = Single dose pharmacokinetic (SDPK) study; format: in vivo; conditions: for Oral BA: micronized API suspension; for clearance / Vd / half-life: plasma; for clearance / Vd: iv, 5 mg/kg, single dose; for Vd: read-out: Vdss; for half-life: iv 5 mg/kg
Method: Blood samples were collected by retro-orbital puncture at pre-dose and 0.033, 0.083, 0.25,0.5, 1, 2, 4, 6, 8, and 24 hours post-dose. The plasma samples and the dose formulation were stored at −20°C until bioanalysis. The data acquisition and control system were created using Analyst 1.4 software from ABI Inc. The concentrations in plasma below the limit of quantitation (LOQ = 1 ng/mL) were designated as zero. […] For rat, dog and monkey SDPK, the blood samples were collected from jugular vein puncture.

SMILES: COc1ccc2c(c1)C(c1ccccc1Cl)=Nc1c(n[nH]c1C)N2 [R1498]
- Oral BA ([1]; 10-100 mg/kg, micronized API suspension): 44-92 (10-100 mg/kg) %
- clearance ([1]; male, plasma, iv, 2 mg/kg, single dose): 6.3 mL/min/kg
- Vd ([1]; male, plasma, iv, 2 mg/kg, single dose, read-out: Vdss): 2 L/kg
- half-life ([1]; male, plasma, iv 2 mg/kg): 4 h
- Final TGI% [2]: 73.6 ∼ 91.6%
- regression rates [2]: 10–30% and 10∼30%
- IC50 (HUVEC (FBS stimulated)): 2060 nM
- Tumor AUC @ SS ([3]; BEL-7402, 3.125 mpk, bid, PO): 2219
- Tumor AUC @ SS ([3]; BEL-7402, 6.25 mpk, bid, PO): 6713
- Tumor AUC @ SS ([3]; BEL-7402, 12.5 mpk, bid, PO): 23886
- Tumor AUC @ SS ([3]; BEL-7404, 3.125 mpk, bid, PO): 9251
- Tumor AUC @ SS ([3]; BEL-7404, 6.25 mpk, bid, PO): 17558
- Tumor AUC @ SS ([3]; BEL-7404, 12.5 mpk, bid, PO): 37142
- Tumor AUC @ SS ([3]; BEL-7404, 12.5 mpk, single dose, PO (PK arm)): 30996
- Tumor AUC @ SS ([3]; BGC-823 (model cell empty, from line above), 25 mpk, single dose, PO (PK arm)): 49597
- Tumor AUC @ SS ([3]; BGC-823, 6.25 mpk, bid, PO): 9906
- Tumor AUC @ SS ([3]; BGC-823, 12.5 mpk, bid, PO): 39971
- Tumor AUC @ SS ([3]; BGC-823, 25 mpk, bid, PO): 70897
- Tumor AUC @ SS ([3]; SGC-7901 (model cell empty, from line above), 25 mpk, single dose, PO (PK arm)): 147592
- Tumor AUC @ SS ([3]; SGC-7901, 6.25 mpk, bid, PO): 25249
- Tumor AUC @ SS ([3]; SGC-7901, 12.5 mpk, bid, PO): 48130
- Tumor AUC @ SS ([3]; SGC-7901, 25 mpk, bid, PO): 78767
- AUC ([3]; in vivo, 12.5 mg/kg, BEL-7402, 12.5 mpk, bid, PO): 26100 ng·h/mL
- AUC ([3]; in vivo, 12.5 mg/kg, BEL-7404, 12.5 mpk, bid, PO): 21600 ng·h/mL
- AUC ([3]; in vivo, 12.5 mg/kg, BEL-7404, 12.5 mpk, single dose, PO (PK arm)): 15200 ng·h/mL
- AUC ([3]; in vivo, 12.5 mg/kg, BGC-823, 12.5 mpk, bid, PO): 31100 ng·h/mL
- AUC ([3]; in vivo, 12.5 mg/kg, SGC-7901, 12.5 mpk, bid, PO): 26900 ng·h/mL
- AUC ([3]; plasma, 3.125 mg/kg, BEL-7402, 3.125 mpk, bid, PO): 5380 ng·h/mL
- AUC ([3]; plasma, 3.125 mg/kg, BEL-7404, 3.125 mpk, bid, PO): 3560 ng·h/mL
- AUC ([3]; plasma, 6.25 mg/kg, BEL-7402, 6.25 mpk, bid, PO): 12600 ng·h/mL
- AUC ([3]; plasma, 6.25 mg/kg, BEL-7404, 6.25 mpk, bid, PO): 6560 ng·h/mL
- AUC ([3]; plasma, 6.25 mg/kg, BGC-823, 6.25 mpk, bid, PO): 10800 ng·h/mL
- AUC ([3]; plasma, 6.25 mg/kg, SGC-7901, 6.25 mpk, bid, PO): 11400 ng·h/mL
- AUC ([3]; plasma, 25 mg/kg, BGC-823 (model cell empty, from line above), 25 mpk, single dose, PO (PK arm)): 73300 ng·h/mL
- AUC ([3]; plasma, 25 mg/kg, BGC-823, 25 mpk, bid, PO): 43300 ng·h/mL
- AUC ([3]; plasma, 25 mg/kg, SGC-7901 (model cell empty, from line above), 25 mpk, single dose, PO (PK arm)): 70100 ng·h/mL
- AUC ([3]; plasma, 25 mg/kg, SGC-7901, 25 mpk, bid, PO): 47900 ng·h/mL
- IC50 (Aurora kinase A): 67 ± 4 nM
- IC50 (VEGFR2): 25 ± 6 nM
- IC50 (Aurora kinase B): 167 ± 13 nM
- Oral BA ([4]; Dog, 50-100 mg/kg): 32-45 (50-100 mg/kg) %
- Oral BA ([4]; Monkey, 12.5 mg/kg): 4 (12.5 mg/kg) %
- Oral BA ([4]; Rat, 25-400 mg/kg): 9-44 (25-400 mg/kg) %
- clearance ([4]; Dog): 1.9 mL/min/kg
- Vd ([4]; Dog): 2.7 L/kg
- clearance ([4]; Monkey): 25.3 mL/min/kg
- Vd ([4]; Monkey): 2.1 L/kg
- clearance ([4]; Rat): 5.6 mL/min/kg
- Vd ([4]; Rat): 1.6 L/kg
- half-life ([4]; Dog): 16.8 h
- half-life ([4]; Monkey): 1.5 h
- half-life ([4]; Rat): 3.2 h
